The values that follow come from ChEMBL document CHEMBL1134322, “A novel approach for the development of selective Cdk4 inhibitors: library design based on locations of Cdk4 specific amino acid residues” (J Med Chem, 2001).

Test [1] has as its target Cyclin-dependent kinase 2 and 4 (CDK2 and CDK4) (Homo sapiens) (UniProt P11802+P24941). As to the kind of experiment: Selectivity for CDK4 over CDK2. The format is protein assay.
Test [2] can be described thus: Inhibition of human recombinant cyclin D2-CDK4.
For test [3], the target named is Cyclin-dependent kinase 2/cyclin A (Homo sapiens, UniProt P24941). As to the kind of experiment: Inhibition of human recombinant cyclin A-CDK2. It counts as protein-complex assay.
The species entered for another test is Homo sapiens. Description: Selectivity for CDK4 over CDK1.
The target of test [4] is Cyclin-dependent kinase 1/cyclin B (Homo sapiens, UniProt P06493). Description: Inhibition of human recombinant cyclin B-CDK1. It counts as protein-complex assay.
For the next test, the target named is CaM kinase II (Homo sapiens, UniProt Q13557+Q13555+Q13554+Q9UQM7). As to the kind of experiment: Inhibition of calcium/calmodulin-dependent protein kinase type II. It counts as protein assay.
The target in test [5] is Fibroblast growth factor receptor 1 (Homo sapiens, UniProt P11362). Description: Inhibition of fibroblast growth factor receptor 1.
Test [6] concerns the target Mitogen-activated protein kinase 3 (Homo sapiens, UniProt P27361). Description: Inhibition of ERK1 ser/thr kinase.
The target of test [7] is Dual specificity mitogen-activated protein kinase kinase 1 (Homo sapiens, UniProt Q02750). Description: Inhibition of mitogen activated protein kinase kinase 1.
Test [8] deals with cAMP-dependent protein kinase (PKA) (Homo sapiens, UniProt P22694+P17612+P22612). Description: Inhibition of PKA ser/thr kinase. The format is protein assay.
For test [9], the target named is Platelet-derived growth factor receptor beta (Homo sapiens, UniProt P09619). As to the kind of experiment: Inhibition of PDGFRbeta tyrosine kinase.
The target in the next test is Protein kinase C (PKC). As to the kind of experiment: Inhibition of PKC ser/thr kinase. It counts as protein assay, Homo sapiens.
The target of test [10] is Proto-oncogene tyrosine-protein kinase Src (Homo sapiens, UniProt P12931). As to the kind of experiment: Inhibition of Src tyrosine kinase.
Test [11] addresses Vascular endothelial growth factor receptor 1 (Homo sapiens, UniProt P17948). As to the kind of experiment: Inhibition of Flt-1 tyrosine kinase.
Test [12] can be described thus: Inhibition of cyclin D2-CDK4 ser/thr kinase. More on the design: species or system Homo sapiens.
For test [13], the target named is T1, Tyrosine-protein kinase ZAP-70 (Homo sapiens, UniProt P43403).
T1 sequence (P43403 whole entry): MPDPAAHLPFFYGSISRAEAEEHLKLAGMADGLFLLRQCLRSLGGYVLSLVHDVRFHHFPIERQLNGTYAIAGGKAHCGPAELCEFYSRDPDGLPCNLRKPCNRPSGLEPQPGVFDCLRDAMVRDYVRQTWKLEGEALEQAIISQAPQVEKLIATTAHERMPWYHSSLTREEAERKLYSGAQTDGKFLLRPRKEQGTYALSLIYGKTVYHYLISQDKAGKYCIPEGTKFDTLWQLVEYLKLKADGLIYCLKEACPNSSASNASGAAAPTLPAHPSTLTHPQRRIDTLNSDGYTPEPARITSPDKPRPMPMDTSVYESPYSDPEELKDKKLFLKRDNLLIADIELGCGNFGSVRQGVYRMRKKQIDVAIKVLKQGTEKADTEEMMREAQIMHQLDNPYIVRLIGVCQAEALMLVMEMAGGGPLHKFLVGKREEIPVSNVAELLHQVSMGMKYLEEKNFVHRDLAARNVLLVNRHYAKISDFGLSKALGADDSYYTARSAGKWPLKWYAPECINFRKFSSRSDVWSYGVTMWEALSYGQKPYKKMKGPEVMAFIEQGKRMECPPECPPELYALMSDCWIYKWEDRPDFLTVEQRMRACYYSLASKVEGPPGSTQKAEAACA
Description: Inhibition of Zap70 tyrosine kinase.

In a further test the target is CDK6/cyclin D1 (Homo sapiens, UniProt Q00534). As to the kind of experiment: Inhibition of cyclin D1-CDK6 ser/thr kinase. The format is protein-complex assay.
The target of test [14] is Tyrosine-protein kinase Lck (Homo sapiens, UniProt P06239). As to the kind of experiment: Inhibition of Lck tyrosine kinase.
For test [15], the target named is Mitogen-activated protein kinase 14 (Homo sapiens, UniProt Q16539). Description: Inhibition of p38-alpha ser/thr kinase.
The target of test [16] is RAC-alpha serine/threonine-protein kinase (Homo sapiens, UniProt P31749). As to the kind of experiment: Inhibition of PKBalpha (Akt1) ser/thr kinase.

pIC50: −log10 of the molar value. Where only a bound is given, the exact number is not on record here.

Chain of Mitogen-activated protein kinase 3 (P27361 whole entry): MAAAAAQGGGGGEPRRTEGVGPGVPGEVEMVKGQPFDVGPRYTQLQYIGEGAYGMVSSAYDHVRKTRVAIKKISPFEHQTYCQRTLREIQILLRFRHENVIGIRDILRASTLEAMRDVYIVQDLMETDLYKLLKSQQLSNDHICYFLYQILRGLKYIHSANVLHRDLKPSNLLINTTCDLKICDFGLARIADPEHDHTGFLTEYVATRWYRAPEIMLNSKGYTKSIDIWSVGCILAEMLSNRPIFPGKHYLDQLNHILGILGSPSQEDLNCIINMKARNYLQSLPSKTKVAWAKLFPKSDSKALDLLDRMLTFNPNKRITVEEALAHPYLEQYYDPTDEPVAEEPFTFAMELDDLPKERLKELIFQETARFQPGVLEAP
Chain of Platelet-derived growth factor receptor beta (P09619 whole entry): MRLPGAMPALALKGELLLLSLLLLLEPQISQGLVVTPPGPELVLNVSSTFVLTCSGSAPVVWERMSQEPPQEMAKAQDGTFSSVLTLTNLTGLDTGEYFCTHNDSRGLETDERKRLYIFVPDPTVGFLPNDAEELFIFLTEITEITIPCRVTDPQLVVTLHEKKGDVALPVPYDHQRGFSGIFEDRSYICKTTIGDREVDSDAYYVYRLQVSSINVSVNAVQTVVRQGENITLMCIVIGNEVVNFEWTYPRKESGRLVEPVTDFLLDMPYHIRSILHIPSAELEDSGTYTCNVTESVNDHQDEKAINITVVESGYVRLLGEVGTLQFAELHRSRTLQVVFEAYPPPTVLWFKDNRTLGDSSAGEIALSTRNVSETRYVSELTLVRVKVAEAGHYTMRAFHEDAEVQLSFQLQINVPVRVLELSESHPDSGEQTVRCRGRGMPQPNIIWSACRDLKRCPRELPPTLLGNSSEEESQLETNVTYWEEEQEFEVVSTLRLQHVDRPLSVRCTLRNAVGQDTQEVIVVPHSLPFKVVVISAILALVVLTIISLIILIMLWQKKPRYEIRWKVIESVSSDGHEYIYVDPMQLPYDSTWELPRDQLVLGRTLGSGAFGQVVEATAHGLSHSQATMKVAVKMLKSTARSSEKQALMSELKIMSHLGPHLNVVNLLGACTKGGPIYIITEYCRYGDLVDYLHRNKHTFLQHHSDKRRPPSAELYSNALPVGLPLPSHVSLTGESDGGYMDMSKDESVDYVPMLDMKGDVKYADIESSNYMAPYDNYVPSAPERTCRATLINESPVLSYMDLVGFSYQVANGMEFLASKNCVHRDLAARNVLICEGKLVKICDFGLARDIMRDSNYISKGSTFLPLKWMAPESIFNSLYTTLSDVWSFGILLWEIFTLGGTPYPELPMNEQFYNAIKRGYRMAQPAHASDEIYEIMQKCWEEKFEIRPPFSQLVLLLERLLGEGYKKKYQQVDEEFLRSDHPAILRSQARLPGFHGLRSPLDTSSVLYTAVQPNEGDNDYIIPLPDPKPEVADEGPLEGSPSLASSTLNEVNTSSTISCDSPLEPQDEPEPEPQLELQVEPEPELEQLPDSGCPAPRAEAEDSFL
Chain of CDK6/cyclin D1 (P24385 whole entry): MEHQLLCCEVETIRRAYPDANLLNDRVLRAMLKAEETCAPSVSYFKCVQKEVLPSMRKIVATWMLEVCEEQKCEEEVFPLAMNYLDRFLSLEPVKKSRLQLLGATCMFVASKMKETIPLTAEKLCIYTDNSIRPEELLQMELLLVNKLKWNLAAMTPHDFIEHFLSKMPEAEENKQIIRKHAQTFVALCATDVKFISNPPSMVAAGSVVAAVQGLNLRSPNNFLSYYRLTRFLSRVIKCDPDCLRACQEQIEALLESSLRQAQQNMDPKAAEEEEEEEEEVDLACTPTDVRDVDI
Chain of CDK6/cyclin D1 (Q00534 whole entry): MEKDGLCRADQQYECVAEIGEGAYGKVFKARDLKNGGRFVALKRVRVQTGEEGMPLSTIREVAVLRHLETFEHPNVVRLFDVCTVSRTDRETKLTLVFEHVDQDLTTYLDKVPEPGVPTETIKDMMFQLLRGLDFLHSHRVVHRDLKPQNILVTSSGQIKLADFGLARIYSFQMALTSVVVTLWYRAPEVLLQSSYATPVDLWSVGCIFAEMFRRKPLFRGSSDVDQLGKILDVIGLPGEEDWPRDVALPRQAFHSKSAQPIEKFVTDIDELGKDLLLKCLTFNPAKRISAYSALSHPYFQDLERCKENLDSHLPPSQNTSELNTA
Chain of Proto-oncogene tyrosine-protein kinase Src (P12931 2-536 limits assumed): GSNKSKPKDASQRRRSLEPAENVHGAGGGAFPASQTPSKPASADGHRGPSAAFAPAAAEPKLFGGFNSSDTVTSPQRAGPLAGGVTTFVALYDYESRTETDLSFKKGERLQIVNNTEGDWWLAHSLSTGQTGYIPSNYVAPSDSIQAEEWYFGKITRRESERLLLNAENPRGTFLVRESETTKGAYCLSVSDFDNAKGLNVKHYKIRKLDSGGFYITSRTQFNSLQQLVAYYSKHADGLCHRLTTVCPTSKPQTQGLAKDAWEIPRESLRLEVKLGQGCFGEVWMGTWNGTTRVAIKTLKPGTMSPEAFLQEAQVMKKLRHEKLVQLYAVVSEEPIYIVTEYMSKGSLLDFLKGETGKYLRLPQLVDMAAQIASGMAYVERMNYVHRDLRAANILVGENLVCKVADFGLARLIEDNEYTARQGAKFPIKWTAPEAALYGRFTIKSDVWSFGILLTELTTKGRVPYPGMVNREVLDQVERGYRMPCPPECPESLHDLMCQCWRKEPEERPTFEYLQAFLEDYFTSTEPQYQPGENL
Chain of Fibroblast growth factor receptor 1 (P11362 whole entry): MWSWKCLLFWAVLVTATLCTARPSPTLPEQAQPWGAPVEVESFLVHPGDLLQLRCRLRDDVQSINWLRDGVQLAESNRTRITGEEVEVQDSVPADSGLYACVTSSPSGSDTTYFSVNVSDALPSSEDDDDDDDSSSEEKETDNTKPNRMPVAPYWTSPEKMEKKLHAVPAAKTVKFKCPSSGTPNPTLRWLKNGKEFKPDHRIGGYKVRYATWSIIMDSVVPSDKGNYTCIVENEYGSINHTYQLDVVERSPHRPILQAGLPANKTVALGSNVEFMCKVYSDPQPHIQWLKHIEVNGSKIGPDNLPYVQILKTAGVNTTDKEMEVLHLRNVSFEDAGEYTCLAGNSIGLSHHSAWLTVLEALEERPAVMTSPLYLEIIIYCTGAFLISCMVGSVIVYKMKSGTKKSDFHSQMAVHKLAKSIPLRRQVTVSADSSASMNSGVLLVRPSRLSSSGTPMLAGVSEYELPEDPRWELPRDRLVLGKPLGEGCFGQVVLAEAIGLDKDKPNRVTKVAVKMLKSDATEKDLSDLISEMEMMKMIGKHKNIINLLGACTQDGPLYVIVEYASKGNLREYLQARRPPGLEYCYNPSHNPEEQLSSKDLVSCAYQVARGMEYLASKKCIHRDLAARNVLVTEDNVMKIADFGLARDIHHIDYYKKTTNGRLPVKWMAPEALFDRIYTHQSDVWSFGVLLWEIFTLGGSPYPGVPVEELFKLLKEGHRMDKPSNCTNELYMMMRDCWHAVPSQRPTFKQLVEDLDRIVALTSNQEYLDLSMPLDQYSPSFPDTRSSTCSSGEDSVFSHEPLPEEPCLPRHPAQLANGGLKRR
Chain of Vascular endothelial growth factor receptor 1 (P17948 whole entry): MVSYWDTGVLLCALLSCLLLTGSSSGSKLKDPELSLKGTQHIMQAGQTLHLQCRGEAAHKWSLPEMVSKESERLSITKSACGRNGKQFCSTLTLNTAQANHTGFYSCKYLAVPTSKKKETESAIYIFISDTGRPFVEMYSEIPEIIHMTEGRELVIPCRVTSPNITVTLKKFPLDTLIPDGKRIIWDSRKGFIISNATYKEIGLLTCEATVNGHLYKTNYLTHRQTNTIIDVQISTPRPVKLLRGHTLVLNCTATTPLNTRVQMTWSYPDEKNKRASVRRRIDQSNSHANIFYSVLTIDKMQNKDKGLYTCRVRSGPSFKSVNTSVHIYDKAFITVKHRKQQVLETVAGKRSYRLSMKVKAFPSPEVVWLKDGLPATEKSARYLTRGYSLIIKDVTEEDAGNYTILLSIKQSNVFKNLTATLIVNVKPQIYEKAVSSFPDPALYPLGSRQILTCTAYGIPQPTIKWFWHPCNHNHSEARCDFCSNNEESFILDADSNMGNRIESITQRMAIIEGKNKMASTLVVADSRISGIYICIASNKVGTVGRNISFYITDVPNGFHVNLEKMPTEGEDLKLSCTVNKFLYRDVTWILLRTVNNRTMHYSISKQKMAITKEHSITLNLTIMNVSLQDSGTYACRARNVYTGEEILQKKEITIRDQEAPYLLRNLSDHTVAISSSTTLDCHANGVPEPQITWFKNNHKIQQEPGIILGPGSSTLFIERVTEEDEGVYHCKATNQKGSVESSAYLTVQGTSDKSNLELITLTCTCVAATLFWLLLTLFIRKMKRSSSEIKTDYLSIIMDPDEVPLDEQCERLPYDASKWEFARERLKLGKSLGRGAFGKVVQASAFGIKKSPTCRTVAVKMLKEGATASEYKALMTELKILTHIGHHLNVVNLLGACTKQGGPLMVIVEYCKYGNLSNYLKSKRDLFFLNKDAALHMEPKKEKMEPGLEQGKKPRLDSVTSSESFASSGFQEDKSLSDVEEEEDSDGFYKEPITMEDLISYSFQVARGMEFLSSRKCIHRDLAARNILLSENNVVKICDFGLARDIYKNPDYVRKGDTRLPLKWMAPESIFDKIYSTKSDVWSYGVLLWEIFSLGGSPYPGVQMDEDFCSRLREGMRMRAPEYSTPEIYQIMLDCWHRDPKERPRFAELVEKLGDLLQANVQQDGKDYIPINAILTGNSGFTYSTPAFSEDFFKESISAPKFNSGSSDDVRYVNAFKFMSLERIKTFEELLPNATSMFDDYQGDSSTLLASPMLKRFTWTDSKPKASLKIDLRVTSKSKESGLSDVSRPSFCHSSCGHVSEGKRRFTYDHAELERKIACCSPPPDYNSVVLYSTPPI

In turn, `O=C(Nc1cc(CNC2CCCCC2)[nH]n1)Nc1cccc2c1C1CCCN1C2=O` (stereo unspecified) had a Selectivity in [1] of 27. In addition, the figures for the pIC50 in [2] and in [3] were 6.14 and 4.70, respectively.
Taken in the same sequence, the figures for `CC(C)(C)NCc1cc(NC(=O)Nc2cccc3c2C2CCCN2C3=O)[nH]n1` (stereo unspecified) were 180, 7.25 and 5.01.
Taken in the same sequence, the figures for `CC(C)NCc1cc(NC(=O)Nc2cccc3c2C2CCCN2C3=O)[nH]n1` (stereo unspecified) were 130, 6.89 and 4.77.
The matching figures for `O=C(Nc1cc(CN2CCCC2)[nH]n1)Nc1cccc2c1C1CCCN1C2=O` (stereo unspecified): 16, 6.33 and 5.12.
`O=C(Nc1cc(CNC2CCCC2)[nH]n1)Nc1cccc2c1C1CCCN1C2=O` (stereo unspecified): the Selectivity in test [1] worked out at 150. Further, the pIC50 (usually the negative decadic logarithm of the IC50, by convention in mol/L) in test [2] is 7.19.
Take `CNCc1cc(NC(=O)Nc2cccc3c2C2CCCN2C3=O)[nH]n1` (stereo unspecified): the Selectivity in test [1] stood at 48. Moreover, the pIC50 is 6.54 in test [2] and 4.85 in test [3].
Taken in the same sequence, the figures for `O=C(Nc1cc(CN2CCCCC2)[nH]n1)Nc1cccc2c1C1CCCN1C2=O` (stereo unspecified) were 48, 6.60 and 4.92.
As for `O=C(Nc1cc[nH]n1)Nc1cccc2c1[C@@H]1CCCN1C2=O`, the pIC50 in test [2] was 7.54.
The compound `CCCNCc1cc(NC(=O)Nc2cccc3c2C2CCCN2C3=O)[nH]n1` (stereo unspecified) had a Selectivity in test [1] of 75. Moreover, the results for the pIC50 in test [2] and in [3] were 6.80 and 4.92, respectively.
Regarding `O=C(Nc1cc([C@@H]2CCCN2)[nH]n1)Nc1cccc2c1[C@H]1CCCN1C2=O`, the figures for the Selectivity (in [1]; in the test filed under Homo sapiens) were 110 and 140, respectively. Besides, the figures for the pIC50 in test [2], in test [3] and in [4] were 6.66, 4.60 and 4.51, respectively.
As to `O=C(Nc1ccccn1)Nc1cccc2c1[C@H]1CCCN1C2=O`, the IC50 (in general, the midpoint of a concentration-inhibition curve) is over 10 µM at CaM kinase II, over 20 µM in [8] and over 20 µM on Protein kinase C (PKC). For the same compound, the pIC50 in test [5] is 5.17; in test [6] it was under 5.00; in [7], under 5.00; in test [9], 5.30; in [10], under 5.30; in [11], 5.55. The pIC50 was 7.38 in test [12]; under 5.00 in test [13]; 7.15 against CDK6/cyclin D1; 5.64 in [14]; under 5.00 in test [15]; under 5.00 in test [16].
For the compound `O=C(Nc1cc([C@@H]2CCCN2)[nH]n1)Nc1cccc2c1[C@@H]1CCCN1C2=O`, the Selectivity in test [1] turned out to be 120; in the test filed under Homo sapiens it was 130. The pIC50 in test [2] is 6.68.
With `O=C(Nc1cc([C@@H]2CCCN2)n[nH]1)Nc1cccc2c1[C@@H]1CCCN1C2=O`, the pIC50 is 4.60 in test [3] and 4.55 in test [4].
With `O=C(Nc1cc(CNC2CCCC2)n[nH]1)Nc1cccc2c1C1CCCN1C2=O` (stereo unspecified), in test [3], the pIC50 was 5.01.
On to `O=C(Nc1cc[nH]n1)Nc1cccc2c1[C@H]1CCCN1C2=O`, for which the pIC50 in test [2] was 7.68.
